From patent US11697648B2, “Fused pyrimidine pyridinone compounds as JAK inhibitors” (THERAVANCE BIOPHARMA R&D IP, LLC, priority 2019, dated 2023)

Legend:
Caco-2 cell monolayers = experiment: Caco-2 permeation assay; type: in vitro ADME; conditions: 5 μM, A-B direction, with Verapamil (25 μM)
Method in brief: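 Compounds tested at 5 μM in duplicate across Caco-2 monolayers, apical-to-basolateral, with 25 μM verapamil to block P-gp, at 37° C., 5% CO2. Apical and basal samples taken at 0 and 120 min, analysed by LC-MS/MS; Papp (cm/sec) calculated as dQ/(dt×Area×concentration).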

JAK2 = JAK2 (Homo sapiens (Human), UniProt O60674); experiment: Biochemical JAK2 kinase assay (LanthaScreen)
Method in brief: (§1)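 GST-JAK + GFP-STAT1 peptide, HEPES pH 7.5/MgCl2/EGTA/Brij-35 buffer; cpd preincubation 1 h RT; ATP start, 1 h RT; stop with 10 mM EDTA + 2 nM Tb-anti-pSTAT1; TR-FRET 520/495. 4-parameter IC50 → pKi (Cheng-Prusoff).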

JAK3 = JAK3 (Homo sapiens (Human), UniProt P52333); experiment: Biochemical JAK3 kinase assay (LanthaScreen); conditions: for JAK3 (pKi)-JAK1 (pKi): selectivity JAK3 over JAK1, difference of pKi
Method in brief: as §1

[1] = tested on: oxazolone-induced colitis; experiment: Mouse model of oxazolone-induced colitis; type: in vivo, BALB/C mice
Method: Assay 6: Mouse Model of Oxazolone-Induced Colitis
Oxazolone-induced colitis is an experimental model that has a histological resemblance to human ulcerative colitis (Heller et al. Immunology, 2002, 17, 629-638). Adult BALB/C mice from Harlan were used in the assay. On day 1, animals were lightly anesthetized with isoflurane and the hairs between the shoulder were carefully removed before oxazolone (4%, 150 μL, 4:1 acetone: olive oil formulation) or vehicle solution was slowly applied for skin sensitization. Seven days after skin sensitization, the mice were fasted around 6 hours prior, anesthetized with ketamine/xylazine injection, and a 1 mL syringe equipped with a 3.5-F catheter, filled with oxazolone solution, was inserted carefully about 4 cm into the colon of the mouse. Following insertion, 50 μL of the oxazolone solution (0.8% in 1:1 ethanol:water formulation) was injected very slowly (over 30 sec using an injection pump) into the colon. Drug treatment (PO, QD or BID or TID) or vehicle was initiated a day prior to the oxazolone intrarectal (IR) challenge. Two-day post oxazolone intrarectal challenge, the disease was assessed by treatment-blinded experimenters for each mouse according to the criteria score: stool consistency score (0, normal; 2, loose; 4, diarrhea), gross bleeding score (0, absence; 2, blood tinged; 4, presence); Combined stool score endpoint=stool consistency score+stool blood score.
Select compounds were tested in the assay.

Tyk2 = Tyk2 (Homo sapiens (Human), UniProt P29597); experiment: Biochemical Tyk2 kinase assay (LanthaScreen)
Method in brief: as §1

Chain of Tyk2 (P29597 whole entry): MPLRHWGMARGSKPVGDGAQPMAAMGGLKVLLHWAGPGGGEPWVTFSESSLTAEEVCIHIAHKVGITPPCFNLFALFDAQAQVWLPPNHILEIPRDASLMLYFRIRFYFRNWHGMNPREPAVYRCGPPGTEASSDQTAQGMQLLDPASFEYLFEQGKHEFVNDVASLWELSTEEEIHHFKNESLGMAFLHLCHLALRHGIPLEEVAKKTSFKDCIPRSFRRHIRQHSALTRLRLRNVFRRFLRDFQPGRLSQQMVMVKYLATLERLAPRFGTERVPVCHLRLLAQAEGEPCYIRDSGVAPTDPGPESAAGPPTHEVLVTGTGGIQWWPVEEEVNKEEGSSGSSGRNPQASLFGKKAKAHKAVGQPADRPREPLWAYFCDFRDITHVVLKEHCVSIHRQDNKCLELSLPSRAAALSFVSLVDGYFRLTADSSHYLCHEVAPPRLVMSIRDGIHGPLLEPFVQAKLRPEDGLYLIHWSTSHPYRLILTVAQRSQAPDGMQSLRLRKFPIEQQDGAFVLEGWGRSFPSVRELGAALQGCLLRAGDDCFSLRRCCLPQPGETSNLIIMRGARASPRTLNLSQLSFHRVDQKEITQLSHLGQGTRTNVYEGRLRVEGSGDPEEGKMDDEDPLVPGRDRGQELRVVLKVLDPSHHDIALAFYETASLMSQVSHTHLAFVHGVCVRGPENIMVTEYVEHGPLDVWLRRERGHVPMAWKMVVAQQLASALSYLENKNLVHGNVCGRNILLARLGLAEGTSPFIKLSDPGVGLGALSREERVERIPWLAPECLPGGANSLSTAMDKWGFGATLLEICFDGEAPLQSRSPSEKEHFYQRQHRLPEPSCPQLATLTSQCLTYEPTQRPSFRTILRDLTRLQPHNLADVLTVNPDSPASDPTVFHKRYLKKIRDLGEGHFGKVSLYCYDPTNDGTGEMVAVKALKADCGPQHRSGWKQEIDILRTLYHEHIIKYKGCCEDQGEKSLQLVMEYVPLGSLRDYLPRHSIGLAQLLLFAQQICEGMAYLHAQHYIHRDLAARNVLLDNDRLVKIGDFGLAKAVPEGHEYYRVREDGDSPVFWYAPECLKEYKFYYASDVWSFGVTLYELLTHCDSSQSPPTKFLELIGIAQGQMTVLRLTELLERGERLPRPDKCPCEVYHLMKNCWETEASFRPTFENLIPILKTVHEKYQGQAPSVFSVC
Chain of JAK3 (P52333 whole entry): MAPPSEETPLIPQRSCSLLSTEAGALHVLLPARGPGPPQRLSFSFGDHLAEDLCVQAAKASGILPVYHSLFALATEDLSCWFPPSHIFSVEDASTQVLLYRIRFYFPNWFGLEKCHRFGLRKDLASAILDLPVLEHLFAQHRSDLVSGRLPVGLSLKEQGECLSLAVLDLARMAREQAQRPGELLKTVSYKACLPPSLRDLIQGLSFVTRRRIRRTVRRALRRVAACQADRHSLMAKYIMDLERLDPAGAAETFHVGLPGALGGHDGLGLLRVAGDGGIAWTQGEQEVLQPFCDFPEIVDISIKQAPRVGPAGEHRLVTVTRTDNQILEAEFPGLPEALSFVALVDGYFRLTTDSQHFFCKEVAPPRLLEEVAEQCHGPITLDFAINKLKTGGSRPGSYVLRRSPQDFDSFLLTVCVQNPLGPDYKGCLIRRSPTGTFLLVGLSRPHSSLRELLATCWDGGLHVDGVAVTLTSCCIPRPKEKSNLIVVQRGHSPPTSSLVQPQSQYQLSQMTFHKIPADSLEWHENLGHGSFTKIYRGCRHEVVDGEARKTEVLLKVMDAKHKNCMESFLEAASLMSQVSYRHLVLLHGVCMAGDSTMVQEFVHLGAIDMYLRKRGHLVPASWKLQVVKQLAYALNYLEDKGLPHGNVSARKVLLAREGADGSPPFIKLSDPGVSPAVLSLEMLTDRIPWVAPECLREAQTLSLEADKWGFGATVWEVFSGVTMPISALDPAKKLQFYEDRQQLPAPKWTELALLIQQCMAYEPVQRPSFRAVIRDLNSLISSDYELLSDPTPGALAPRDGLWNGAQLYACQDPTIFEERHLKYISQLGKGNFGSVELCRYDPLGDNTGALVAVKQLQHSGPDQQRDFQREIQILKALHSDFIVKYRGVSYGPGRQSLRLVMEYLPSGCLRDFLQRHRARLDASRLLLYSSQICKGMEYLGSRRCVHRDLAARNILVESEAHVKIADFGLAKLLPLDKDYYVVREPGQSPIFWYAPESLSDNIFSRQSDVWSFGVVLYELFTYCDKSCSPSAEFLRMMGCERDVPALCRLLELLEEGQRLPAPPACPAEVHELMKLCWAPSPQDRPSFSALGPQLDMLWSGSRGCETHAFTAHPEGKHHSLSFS
Chain of JAK2 (O60674 whole entry): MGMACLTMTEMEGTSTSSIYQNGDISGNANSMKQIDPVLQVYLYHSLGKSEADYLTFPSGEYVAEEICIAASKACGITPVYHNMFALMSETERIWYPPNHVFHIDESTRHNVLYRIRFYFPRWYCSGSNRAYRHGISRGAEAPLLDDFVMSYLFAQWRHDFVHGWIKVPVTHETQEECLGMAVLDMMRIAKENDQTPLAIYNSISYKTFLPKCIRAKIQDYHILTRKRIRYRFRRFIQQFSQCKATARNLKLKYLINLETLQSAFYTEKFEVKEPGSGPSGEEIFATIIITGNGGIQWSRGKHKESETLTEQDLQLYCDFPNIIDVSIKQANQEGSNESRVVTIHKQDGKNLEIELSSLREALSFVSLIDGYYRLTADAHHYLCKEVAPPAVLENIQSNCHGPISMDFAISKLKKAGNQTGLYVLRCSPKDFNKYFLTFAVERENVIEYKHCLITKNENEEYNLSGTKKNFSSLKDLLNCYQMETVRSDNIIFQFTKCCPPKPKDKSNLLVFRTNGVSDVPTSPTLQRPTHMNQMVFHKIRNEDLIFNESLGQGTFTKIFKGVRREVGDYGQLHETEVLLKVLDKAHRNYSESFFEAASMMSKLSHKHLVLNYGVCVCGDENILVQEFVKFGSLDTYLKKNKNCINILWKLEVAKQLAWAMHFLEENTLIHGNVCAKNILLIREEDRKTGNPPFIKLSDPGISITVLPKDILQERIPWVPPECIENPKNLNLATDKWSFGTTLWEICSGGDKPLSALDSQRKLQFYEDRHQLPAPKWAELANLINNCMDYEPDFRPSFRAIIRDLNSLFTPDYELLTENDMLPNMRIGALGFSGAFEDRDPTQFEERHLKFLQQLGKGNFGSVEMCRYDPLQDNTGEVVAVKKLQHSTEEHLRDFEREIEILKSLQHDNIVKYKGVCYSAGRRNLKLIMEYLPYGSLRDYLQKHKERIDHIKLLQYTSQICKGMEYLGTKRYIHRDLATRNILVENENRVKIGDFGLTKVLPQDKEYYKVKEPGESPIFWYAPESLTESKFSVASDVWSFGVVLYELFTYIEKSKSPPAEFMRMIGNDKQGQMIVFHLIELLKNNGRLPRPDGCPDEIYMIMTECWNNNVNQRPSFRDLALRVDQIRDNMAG

Row | Compound | Caco Kp (Caco-2 cell monolayers) | JAK 2 (pKi) (JAK2) | JAK 3 (pKi) (JAK3) | JAK3 (pKi)-JAK1 (pKi) (JAK3) | combined stool score endpoint as compared with vehicle treated animals ([1]; dose of 1 mg/kg (PO, BID)) | combined stool score endpoint as compared with vehicle treated animals ([1]; dose of 3 mg/kg (PO, BID)) | Tyk 2 (pKi) (Tyk2)
1 | C=CC(=O)N1CCN(CCn2c(=O)ccc3cnc(Nc4ccc(N5CCN(C)CC5)cc4)nc32)CC1 [Example 1, 8-(2-(4-acryloylpiperazin-1-yl)ethyl)-2-((4-(4-methylpiperazin-1-yl)phenyl)amino)pyrido[2,3-d]pyrimidin-7(8H)-one] | B (B represents a value between 5×10^−6 and 10×10^−6 cm/sec) | E (E represents a pKi value of 7 or below (Ki of 100 nM or above)) | B (B represents pKi value between 9 and 10 (Ki between 1 nM and 0.1 nM)) | A (A represents a value of 3 or above) | statistically significant decrease | statistically significant decrease | E (E represents a pKi value of 7 or below (Ki of 100 nM or above))
2 | C=CC(=O)N1CC(CCn2c(=O)ccc3cnc(Nc4ccc(N5CCN(C(C)=O)CC5)cc4)nc32)C1 [Example 2, 2-((4-(4-acetylpiperazin-1-yl)phenyl)amino)-8-(2-(1-acryloylazetidin-3-yl)ethyl)pyrido[2,3-d]pyrimidin-7(8H)-one] | A (A represents a value below 5×10^−6 cm/sec) | E (E represents a pKi value of 7 or below (Ki of 100 nM or above)) | A (A represents a pKi value≥10 (Ki≤0.1 nM)) | A (A represents a value of 3 or above) | statistically significant decrease | – | E (E represents a pKi value of 7 or below (Ki of 100 nM or above))
3 | C=CC(=O)N1CCN(CCn2c(=O)ccc3cnc(Nc4ccc(N5CCN(C(=O)CCSC)CC5)cc4)nc32)CC1 [Example 4, 8-(2-(4-acryloylpiperazin-1-yl)ethyl)-2-((4-(4-(3-(methylthio)propanoyl)piperazin-1-yl)phenyl)amino)pyrido[2,3-d]pyrimidin-7(8H)-one] | A (A represents a value below 5×10^−6 cm/sec) | E (E represents a pKi value of 7 or below (Ki of 100 nM or above)) | B (B represents pKi value between 9 and 10 (Ki between 1 nM and 0.1 nM)) | A (A represents a value of 3 or above) | statistically significant decrease | – | E (E represents a pKi value of 7 or below (Ki of 100 nM or above))
4 | C=CC(=O)N1CC(CCn2c(=O)ccc3cnc(Nc4cccc(CN5CCN(C(=O)N(C)C)CC5)c4)nc32)C1 [Example 5, 4-(3-((8-(2-(1-acryloylazetidin-3-yl)ethyl)-7-oxo-7,8-dihydropyrido[2,3-d]pyrimidin-2-yl)amino)benzyl)-N,N-dimethylpiperazine-1-carboxamide] | A (A represents a value below 5×10^−6 cm/sec) | E (E represents a pKi value of 7 or below (Ki of 100 nM or above)) | A (A represents a pKi value≥10 (Ki≤0.1 nM)) | A (A represents a value of 3 or above) | statistically significant decrease | statistically significant decrease | E (E represents a pKi value of 7 or below (Ki of 100 nM or above))
5 | C=CC(=O)N1CC(CCn2c(=O)ccc3cnc(Nc4cccc(N5CCN(C(=O)CCSC)CC5)c4)nc32)C1 [Example 7, 8-(2-(1-acryloylazetidin-3-yl)ethyl)-2-((3-(4-(3-(methylthio)propanoyl)piperazin-1-yl)phenyl)amino)pyrido[2,3-d]pyrimidin-7(8H)-one] | B (B represents a value between 5×10^−6 and 10×10^−6 cm/sec) | E (E represents a pKi value of 7 or below (Ki of 100 nM or above)) | B (B represents pKi value between 9 and 10 (Ki between 1 nM and 0.1 nM)) | A (A represents a value of 3 or above) | statistically significant decrease | – | E (E represents a pKi value of 7 or below (Ki of 100 nM or above))
6 | C=CC(=O)N1CCN(CCn2c(=O)ccc3cnc(Nc4cnn(C)c4)nc32)[C@@H](CC)C1 [Example 12, (S)-8-(2-(4-acryloyl-2-ethylpiperazin-1-yl)ethyl)-2-((1-methyl-1H-pyrazol-4-yl)amino)pyrido[2,3-d]pyrimidin-7(8H)-one] | B (B represents a value between 5×10^−6 and 10×10^−6 cm/sec) | E (E represents a pKi value of 7 or below (Ki of 100 nM or above)) | B (B represents pKi value between 9 and 10 (Ki between 1 nM and 0.1 nM)) | A (A represents a value of 3 or above) | statistically significant decrease | – | E (E represents a pKi value of 7 or below (Ki of 100 nM or above))
7 | C=CC(=O)N1CC(CCn2c(=O)ccc3cnc(Nc4ccc(N5CCN(C(=O)CSC)CC5)cc4)nc32)C1 [Example 13, 8-(2-(1-acryloylazetidin-3-yl)ethyl)-2-((4-(4-(2-(methylthio)acetyl)piperazin-1-yl)phenyl)amino)pyrido[2,3-d]pyrimidin-7(8H)-one] | A (A represents a value below 5×10^−6 cm/sec) | E (E represents a pKi value of 7 or below (Ki of 100 nM or above)) | B (B represents pKi value between 9 and 10 (Ki between 1 nM and 0.1 nM)) | A (A represents a value of 3 or above) | statistically significant decrease | statistically significant decrease | E (E represents a pKi value of 7 or below (Ki of 100 nM or above))
